Reference: patent publication US20240307415A1, “STEROID COMPOUND, AND PHARMACEUTICAL COMPOSITION THEREOF AND USE THEREOF” (JIANGSU SIMCERE PHARMACEUTICAL CO., LTD., priority 2021, published 2024)

Key:
[1] = Metabolic stability in mouse liver microsomes; type: in vitro ADME; conditions: CD-1, mouse, pH 7.4, 1 μM compound, 0.5 mg/mL microsome, NADPH 1 mM, 37° C., read-out: Mouse liver microsome stability t1/2
Text: • 1. Human liver microsome (Corning 452117), beagle dog liver microsome (XENOTECH D1000), SD rat liver microsome (XENOTECH R1000), and CD-1 mouse liver microsome (XENOTECH M1000) • 2. Na2HPO4 (Tianjin Guangfu Fine Chemical Research Institute 20180130) • 3. KH2PO4 (Tianjin Guangfu Fine Chemical Research Institute 20180920) • 4. MgCl2 (Tianjin Guangfu Fine Chemical Research Institute 20191216) • 5. NADPH (Solarbio 1216C022) • 6. Positive control compound verapamil (Sigma MKBV4993V) • 7. AB Sciex API4000 liquid chromatography-mass spectrometry system
• 1. Preparation of 100 mM phosphate-buffered saline (PBS): 7.098 g Na2HPO4 was weighed. 500 mL pure water was added. The mixture was dissolved by sonication to give solution A. 3.400 g KH2PO4 was weighed. 250 mL pure water was added. […]
All data were calculated by Microsoft Excel software. The peak area was detected through an extracted ion chromatogram. The in vitro half-life (t1/2) of the compound was determined by linear fitting of the natural logarithm of compound elimination percentage over time.
In vitro half-life (t1/2) was calculated by the slope k: […]
The in vitro intrinsic clearance (in μL/min/mg protein) was calculated using the following formula: […]

hERG potassium channel = hERG potassium channel (Homo sapiens (Human), UniProt Q12809); assay: hERG inhibitory activity, manual patch clamp; type: cell-based; conditions: HEK293 cells stably expressing hERG
Protocol: The inhibition of hERG activity by the compound of the present invention was determined using the following method.
HEK293 cells (Cat. No: K1236) stably expressing hERG ion channel were purchased from Invitrogen. The cells were cultured in a culture medium containing 85% DMEM, 10% dialyzed fetal bovine serum, 0.1 mM non-essential amino acid solution, 100 U/mL penicillin-streptomycin solution, 25 mM HEPES, 5 μg/mL blasticidin, and 400 μg/mL geneticin. When the cell density increased to 40-80% of the bottom area of the culture dish, the cells were digested with trypsin and subcultured thrice every week. Before the experiment, the cells were cultured at a density of 5×10^5 in 6-cm culture dishes, induced for 48 h with 1 μg/mL doxycycline, and then digested and inoculated on a slide for the subsequent manual patch-clamp experiment. […]
• 1) The slides carrying HEK293 cells in the culture dish were placed in the perfusion chamber of the micromanipulation stage. • 2) Appropriate cells were placed in the center of the field of view under an Olympus IX51, IX71, or IX73 inverted microscope. […] The peak value of the tail current was the magnitude of the hERG current. • 9) The hERG current used to detect the test compound was recorded continuously for 120 seconds prior to dosing to assess the stability of hERG current production by the test cells. […]

Sequence of hERG potassium channel (Q12809 whole entry): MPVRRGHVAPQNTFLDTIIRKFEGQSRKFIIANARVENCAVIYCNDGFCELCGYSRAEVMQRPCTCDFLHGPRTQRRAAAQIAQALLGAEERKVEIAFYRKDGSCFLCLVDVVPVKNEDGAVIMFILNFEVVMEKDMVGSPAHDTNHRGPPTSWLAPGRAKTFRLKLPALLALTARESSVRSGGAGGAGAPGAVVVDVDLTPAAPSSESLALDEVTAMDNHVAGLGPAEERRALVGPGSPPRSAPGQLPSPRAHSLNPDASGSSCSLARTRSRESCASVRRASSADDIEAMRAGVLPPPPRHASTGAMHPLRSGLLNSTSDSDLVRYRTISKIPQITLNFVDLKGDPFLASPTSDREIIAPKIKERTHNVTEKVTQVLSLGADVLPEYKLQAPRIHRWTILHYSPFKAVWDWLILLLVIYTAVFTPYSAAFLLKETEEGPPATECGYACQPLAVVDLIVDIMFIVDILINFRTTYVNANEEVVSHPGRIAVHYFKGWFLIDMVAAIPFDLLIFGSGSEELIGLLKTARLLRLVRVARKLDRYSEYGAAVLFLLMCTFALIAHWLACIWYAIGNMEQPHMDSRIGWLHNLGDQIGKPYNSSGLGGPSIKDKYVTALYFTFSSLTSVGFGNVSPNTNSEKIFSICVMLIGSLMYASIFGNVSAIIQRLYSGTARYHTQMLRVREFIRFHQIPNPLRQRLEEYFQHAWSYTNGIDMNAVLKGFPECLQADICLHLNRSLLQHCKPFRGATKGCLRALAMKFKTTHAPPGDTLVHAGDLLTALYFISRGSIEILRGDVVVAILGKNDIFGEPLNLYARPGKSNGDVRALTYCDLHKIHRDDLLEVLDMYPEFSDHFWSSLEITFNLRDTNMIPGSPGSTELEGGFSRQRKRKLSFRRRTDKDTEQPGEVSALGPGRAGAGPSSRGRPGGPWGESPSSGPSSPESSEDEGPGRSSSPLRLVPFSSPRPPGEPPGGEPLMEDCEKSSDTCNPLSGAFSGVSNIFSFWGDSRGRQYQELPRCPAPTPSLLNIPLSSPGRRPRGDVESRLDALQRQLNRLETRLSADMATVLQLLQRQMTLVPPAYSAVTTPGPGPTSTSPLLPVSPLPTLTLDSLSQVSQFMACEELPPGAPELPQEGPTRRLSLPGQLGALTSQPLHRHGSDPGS

C[C@]12C=CC(=O)C=C1CC[C@@H]1[C@@H]2[C@@H](O)C[C@@]2(C)[C@H]1C[C@H]1O[C@@H](c3ccc(Cc4cc(N)c5c(c4)CCO5)cc3)O[C@]12C(=O)CO [Compound 009, (6aR,6bS,7S,8aS,8bS,10R,11aR,12aS,12bS)-10-(4-((7-amino-2,3-dihydrobenzofuran-5-yl)methyl)phenyl)-7-hydroxy-8b-(2-hydroxyacetyl)-6a,8a-dimethyl-6a,6b,7,8,8a,8b,11a,12,12a,12b-decahydro-1H-naphtho[2′,1′:4,5]indeno[1,2-d][1,3]dioxolan-4(2H)-one]
half-life at 1 μM [1]: 17.3 min
IC50 (hERG potassium channel): > 30 µM
